# Measured values as given in patent US9233127B2, “Compositions and methods for CXCR4 signaling and umbilical cord blood stem cell engraftment” (University of Virginia Patent Foundation, priority 2012, dated 2016).
# “Also recorded” adds a separate entry of the source.
# B1: soluble VCAM-1: soluble VCAM-1, component of SLP (protein, UniProt P19320 25-698, looked up)
# extracellular domain: FKIETTPESRYLAQIGDSVSLTCSTTGCESPFFSWRTQIDSPLNGKVTNEGTTSTLTMNPVSFGNEHSYLCTATCESRKLEKGIQVEIYSFPKDPEIHLSGPLEAGKPITVKCSVADVYPFDRLEIDLLKGDHLMKSQEFLEDADRKSLETKSLEVTFTPVIEDIGKVLVCRAKLHIDEMDSVPTVRQAVKELQVYISPKNTVISVNPSTKLQEGGSVTMTCSSEGLPAPEIFWSKKLDNGNLQHLSGNATLTLIAMRMEDSGIYVCEGVNLIGKNRKEVELIVQEKPFTVEISPGPRIAAQIGDSVMLTCSVMGCESPSFSWRTQIDSPLSGKVRSEGTNSTLTLSPVSFENEHSYLCTVTCGHKKLEKGIQVELYSFPRDPEIEMSGGLVNGSSVTVSCKVPSVYPLDRLEIELLKGETILENIEFLEDTDMKSLENKSLEMTFIPTIEDTGKALVCQAKLHIDDMEFEPKQRQSTQTLYVNVAPRDTTVLVSPSSILEEGSSVNMTCLSQGFPAPKILWSRQLPNGELQPLSENATLTLISTKMEDSGVYLCEGINQAGRSRKEVELIIQVTPKDIKLTAFPSESVKEGDTVIISCTCGNVPETWIILKKKAETGDTVLKSIDGAYTIRKAQLKDAGVYECESKNKVGSQLRSLTLDVQGRENNKDYFSPE
# modifications: extracellular domain
# notes: soluble VCAM-1, component of SLP
# B2: soluble ICAM-1: soluble ICAM-1, component of SLP (protein, UniProt P05362 28-480, looked up)
# extracellular domain: QTSVSPSKVILPRGGSVLVTCSTSCDQPKLLGIETPLPKKELLLPGNNRKVYELSNVQEDSQPMCYSNCPDGQSTAKTFLTVYWTPERVELAPLPSWQPVGKNLTLRCQVEGGAPRANLTVVLLRGEKELKREPAVGEPAEVTTTVLVRRDHHGANFSCRTELDLRPQGLELFENTSAPYQLQTFVLPATPPQLVSPRVLEVDTQGTVVCSLDGLFPVSEAQVHLALGDQRLNPTVTYGNDSFSAKASVSVTAEDEGTQRLTCAVILGNQSQETLQTVTIYSFPAPNVILTKPEVSEGTEVTVKCEAHPRAKVTLNGVPAQPLGPRAQLLLKATPEDNGRSFSCSATLEVAGQLIHKNQTRELRVLYGPRLDERDCPGNWTWPENSQQTPMCQAWGNPLPELKCLKDGTFPLPIGESVTVTRDLEGTYLCRARSTQGEVTRKVTVNVLSPRYE
# modifications: extracellular domain
# notes: soluble ICAM-1, component of SLP
# Assays:
# UCB CD34+ cells = assay: Transwell chemotaxis of UCB CD34+ cells to SDF-1 (priming); type: cell-based, human; settings: for chemotactic response of UCB CD34+ cells to SDF-1: added to lower chambers with SDF-1 10 ng/mL, uPAR, ICAM, VCAM, C3a 1 μg/mL, FN 2 μg/mL, FG 4 μg/mL; for induction of chemotaxis of HSPCs when used alone: without SDF-1
# Experimental: (§1) FIG. 11A-B—Effect of SLP and its components on chemotaxis of CD34^+ cells. Panel A: Chemotaxis of BM CD34^+ cells towards medium alone (control), SDF-1 low (10 ng/mL) alone, SLP (combined SLP from three patients), SDF-1 low+SLP, and SDF-1 high (300 ng/mL). Data are pooled from quadruplicate samples from three independent experiments. *p<0.00001. Panel B: Chemotaxis of UCB CD34^+ cells to medium alone (control), SDF-1 low (10 ng/mL) alone and SDF-1 low (10 ng/mL)+uPAR (1 μg/mL) or +ICAM (1 μg/mL) or +VCAM (1 μg/mL) or +FN (2 μg/mL), or +FG (4 μg/mL) or +C3a (1 μg/mL). Data are pooled from quadruplicate samples from three independent experiments. * p<0.00001.
# An increased migration of UCB-derived CD34^+ cells, as compared to BM and mPB CD34^+ cells was reported in transwell migration assays was previously reported. However, we noticed large inter-individual differences in the in vitro migratory ability of UCB CD34^+ cells, ranging from 1.1% to 14.3% for spontaneous migration and 3.1% to 62.3% for SDF-1-induced (300 ng/mL) migration. The lower migratory capacity in vitro of UCB-derived CD34^+ cells was not due to lower expression of CXCR4, but likely reflects the decreased migratory behavior of these cells. […] Based on this, we postulate that UCB HSPC responsiveness to an SDF-1 gradient varies with each collected UCB unit and that, in cases when responsiveness is low, UCB HSPCs should be identified and primed before infusion.
# Moreover, as SLP contains several components that potentially could prime the responses of CD34^+ cells, (Example 2, FIG. 11, panel B) the most important being PMV and activated complement proteins such as anaphylatoxin C3a, soluble VCAM-1, soluble ICAM-1, uPAR, FG, and FN, we evaluated whether these factors could induce the chemotaxis of HSPCs when used alone. […] We also examined whether FG, FN, soluble VCAM-1, soluble ICAM-1, uPAR, and C3a prime HSPCs in their responses to SDF-1. […] To determine whether this also affects UCB CD34^+ clonogenic progenitors, UCB CD34^+ cells were collected from the lower chambers after the chemotaxis assay and plated in methylcellulose cultures. […] Moreover, a similar effect for the established hematopoietic cell lines Molt 4, Nalm-6, and THP-1 was also found (data not shown).
# CXCR4 = assay: Western blot of CXCR4 in lipid raft membrane fractions of THP-1 cells; type: cell-based, human
# Experimental: FIG. 15A-B—Western blot analysis of the colocalization of CXCR4 in fractions of cell membranes enriched in lipid rafts (fractions 3-5) and depleted of lipid rafts (fractions 9-11). Panel A: Hematopoietic THP-1 cells were stimulated by C3a (1 μg/mL) or desArgC3a (1 μg/mL) or not stimulated (control). CXCR4 was detected in these membrane fractions by Western blot along with ganglioside GM1, a marker of lipid rafts. Experiments were performed three times with similar results. Panel B: In control experiments, cells were pretreated for 1 hr with 10 mM MβCD. A representative study is shown.
# Furthermore, direct evidence of the effect of priming agents on CXCR4 incorporation into membrane lipid rafts was obtained from Western blot analysis of CXCR4 expression in various fractions of cell membranes isolated according to their lipid raft content (Example 2, FIG. 15A-B). […] The role of C3a in incorporation of CXCR4 into membrane lipid rafts in UCB cells and involvement of other signaling molecules to this phenomenon will be evaluated in Aim 1.
# CD34+ cells = assay: Transwell chemotaxis of CD34+ cells to an SDF-1 gradient (priming); type: cell-based, human
# Experimental: as §1
# Chemotaxis of CD34^+ cells to medium alone (control), C3a (1 μg/ml), C3adesArg (1 μg/ml), SDF-1 low (10 ng/mL) alone, and SDF-1 low (10 ng/mL)+C3a low (0.1 μg/ml) or SDF-1 low (10 ng/mL)+C3a (1 μg/ml) or SDF-1 low (10 ng/mL)+C3adesArg (1 μg/ml). Data are pooled from quadruplicate samples from three independent experiments.* p<0.00001.
# FIG. 13A-B—Chemotaxis of cells to an SDF-1 gradient is lipid raft-dependent. Panel A: Chemotaxis of CD34^+ cells to medium alone (control), SDF-1 (300 ng/mL) and SDF-1 (300 ng/mL) after preincubation for 1 hr with Amphotericin (10 μg/mL) or Nystatin (50 μg/mL). Cells were collected after chemotaxis from the lower chambers and plated in a clonogenic assay. The number of CFU-GM and BFU-E colonies formed by harvested cells is shown as a percentage of control values. Data are pooled from quadruplicate samples from three independent experiments. *p<0.0001. Panel B: Chemotaxis of CD34^+ cells towards medium alone (control), SDF-1 low (10 ng/mL) alone, or SDF-1 low with cells exposed to C3a (1 μg/mL). Cells pretreated before chemotaxis for 1 hr with MβCD (2.5 mM) are shown as gray bars. Data are pooled from quadruplicate samples from three independent experiments. * p<0.00001.
# HSPCs from the mPB engraft faster compared to HSPCs aspirated from BM. To test the hypothesis that mPB-derived HSPCs are primed in their responses to SDF-1 by molecules present in SLP, we pooled together SLP from three patients and exposed BM or UCB CD34^+ cells to the SLP during chemotaxis to a low (10 ng/mL) dose of SDF-1.
# To address this issue further, the formation of rafts in the cells was perturbed by MβCD, which depletes cholesterol from the cell membrane. The CD34^+ cells were pre-incubated with MβCD for 1 hr. Chemotaxis to a low dose of SDF-1 in the presence of C3a (in the upper chambers) was evaluated.
# UCB T-cells = assay: Cytoplasmic IFN-γ and NFAT1 expression in UCB T-cells during mitogen stimulation; type: cell-based, human; settings: for percentages of IFN-γ-expressing UCB T-cells: exogenous cytokine added during mitogen stimulation, IFN-γ 100 or 1,000 U/ml, 24 h
# Experimental: To further test expression and regulation, exogenous IFN-γ was added (100 or 1,000 U/ml) during mitogen stimulation and cytoplasmic IFN-γ expression in UCB T-cells was measured.
# [1] = system: murine BMNCs and CFU-GM progenitor cells; assay: Migration of murine BMNCs and CFU-GM progenitors to SDF-1 gradient after cationic peptide priming; type: cell-based
# Experimental: FIG. 8A-B—A) BM mononuclear cell and B) CFU-GM migration in response to an SDF-1 gradient after priming with LL-37 or hBD-2. Values are fold increases of migrated cells compared to media alone.
# FIG. 17A-B—Cationic peptides released from granulocytes enhance responsiveness of HSPCs to SDF-1 gradient. […] Values are the fold increases of migrated cells compared to media alone. M, media alone; SDF-1 (L), 50 ng/ml; SDF-1 (H), 300 ng/ml; C3a, 1 μg/ml. * P<0.05 as compared with SDF-1 (50 ng/ml) alone. The data shown represent the combine results from four independent experiments carried out in triplicate per group (n=12).
# We also evaluated the effect of complement fragment 5a (C5a). […] After leaving the BM, granulocytes undergo degranulation in response to plasma C5a and secrete cationic peptides, such as cathelicidin (LL-37) and β-defensin-2 (hBD-2). […] It was hypothesized that this response may be affected by the distribution of membrane lipids by cationic peptides. […] Direct confocal analysis of CXCR4 and lipid raft colocalization in the presence or absence of cationic peptides confirmed these findings.
# NFAT1 = NFAT1 protein and miR-184 in UCB CD4 T-cells stimulated with αCD3/CD28 plus exogenous IFN-γ; type: cell-based, human; settings: for NFAT1 protein expression: CD3/28 stimulation 24 h, absence of monocytes, 1000 U/ml
# Experimental: FIG. 22A-B—Rescue of NFAT1 protein in UCB CD4 T-cells during primary stimulation in the presence of exogenous IFN-γ. UCB CD4 T-cells were stimulated with αCD3/CD28 for 24 h with 1000 U/ml of exogenous rh-IFN-γ. Cell lysates were harvested and Western Blot was probed for NFAT1 and β-actin.
molecule,measurement,setting,value
desArgC3a: fragment of C3a where the end arginine residue is cleaved; 76 residues; SEQ ID NO:2,responsiveness of UCB cells to SDF-1 gradient,UCB CD34+ cells; UCB-derived CD34+ cells exposed/primed,significantly increase the responsiveness
same,incorporation of Rac-1 into membrane lipid rafts,CXCR4,increased the incorporation of Rac-1
same,incorporation of CXCR4 into GM1-enriched membrane lipid rafts (fractions 3-5),CXCR4; 1 μg/mL,stimulates incorporation of CXCR4
same,chemotaxis of human CD34+ cells to low-threshold doses of SDF-1,"CD34+ cells; SDF-1 low 10 ng/mL, C3a or C3adesArg 1 μg/ml",potentiate (prime) chemotaxis
same,chemoattraction of CD34+ cells by the C3 cleavage fragment on its own,"CD34+ cells; no SDF-1, 1 μg/ml",neither C3 cleavage fragments chemoattract
TNF-α,percentages of IFN-γ-expressing UCB T-cells,UCB T-cells,did not result in up-regulation
MIP-3alpha: agonist of a membrane receptor that may bind the cationic peptides [reference compound],responsiveness of hematopoietic progenitors to plasma SDF-1 (priming effect),[1],did not show similar priming effects
IFN-γ: exogenous rh-IFN-γ,percentages of IFN-γ-expressing UCB T-cells,UCB T-cells,nearly increased to that measured in adult T-cells
same,NFAT1 expression and concomitant IFN-γ expression,UCB T-cells; mitogen (ConA) stimulation plus exogenous IFN-γ,strong increases
same,IFN-γ expression,UCB T-cells; treatment with IFN-γ alone,did not stimulate IFN-γ expression
same,NFAT1 expression,UCB T-cells; treatment with IFN-γ alone,only slightly increased
same,miR-184 expression (qRT-PCR),NFAT1; CD3/28 primary stimulation,marked decrease; also recorded: observed to decrease
same,NFAT1 protein expression,NFAT1,increases in NFAT1 protein expression
same,NFAT1 protein expression,NFAT1; listed as rh-IFN-γ,noted to increase
B1,chemotactic response of UCB CD34+ cells to SDF-1,UCB CD34+ cells,increased the chemotactic response
same,induction of chemotaxis of HSPCs when used alone,UCB CD34+ cells,no evidence that they did
B2,chemotactic response of UCB CD34+ cells to SDF-1,UCB CD34+ cells,increased the chemotactic response
same,induction of chemotaxis of HSPCs when used alone,UCB CD34+ cells,no evidence that they did
